System: Pseudomonas aeruginosa PAM1001
Test: microbe, parasite or virus in culture
Assay type: cell-based
Method in brief: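 Checkerboard broth microdilution (NCCLS) with the efflux pump inhibitor and levofloxacin, each diluted along one axis of the plate, in Mueller Hinton Broth. Inoculum 5×10^5 CFU/ml from early-log culture; incubation 20 h at 35° C. Growth read at 650 nm and visually.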

[1] = Table 1, EPI Conc. μg/ml (number not given; column between 10 and 40 μg/ml)
[2] = Table 2, EPI Conc. μg/ml (number not given; column between 10 and 40 μg/ml)
[3] = Table 3, EPI Conc. μg/ml (number not given; column between 10 and 40 μg/ml)
[4] = Table 4, EPI Conc. μg/ml (number not given; column between 10 and 40 μg/ml)

Substance	Levofloxacin MIC Against P. aeruginosa PAM1001 in Presence of Efflux Pump Inhibitor (EPI), Minimum Inhibitory Concentration (Table 1, EPI Conc. 0 μg/ml) [µg/mL]	Levofloxacin MIC Against P. aeruginosa PAM1001 in Presence of Efflux Pump Inhibitor (EPI), Minimum Inhibitory Concentration (Table 1, EPI Conc. 0.625 μg/ml) [µg/mL]	Levofloxacin MIC Against P. aeruginosa PAM1001 in Presence of Efflux Pump Inhibitor (EPI), Minimum Inhibitory Concentration (Table 1, EPI Conc. 5 μg/ml) [µg/mL]	Levofloxacin MIC Against P. aeruginosa PAM1001 in Presence of Efflux Pump Inhibitor (EPI), Minimum Inhibitory Concentration (Table 1, EPI Conc. 10 μg/ml) [µg/mL]	Levofloxacin MIC Against P. aeruginosa PAM1001 in Presence of Efflux Pump Inhibitor (EPI), Minimum Inhibitory Concentration (Table 1, EPI Conc. 40 μg/ml) [µg/mL]	Levofloxacin MIC Against P. aeruginosa PAM1001 in Presence of Efflux Pump Inhibitor (EPI), Minimum Inhibitory Concentration [1] [µg/mL]	Levofloxacin MIC Against P. aeruginosa PAM1001 in Presence of Efflux Pump Inhibitor (EPI), Minimum Inhibitory Concentration (Table 2, EPI Conc. 0 μg/ml) [µg/mL]	Levofloxacin MIC Against P. aeruginosa PAM1001 in Presence of Efflux Pump Inhibitor (EPI), Minimum Inhibitory Concentration (Table 2, EPI Conc. 0.625 μg/ml) [µg/mL]	Levofloxacin MIC Against P. aeruginosa PAM1001 in Presence of Efflux Pump Inhibitor (EPI), Minimum Inhibitory Concentration (Table 2, EPI Conc. 5 μg/ml) [µg/mL]	Levofloxacin MIC Against P. aeruginosa PAM1001 in Presence of Efflux Pump Inhibitor (EPI), Minimum Inhibitory Concentration (Table 2, EPI Conc. 10 μg/ml) [µg/mL]	Levofloxacin MIC Against P. aeruginosa PAM1001 in Presence of Efflux Pump Inhibitor (EPI), Minimum Inhibitory Concentration (Table 2, EPI Conc. 40 μg/ml) [µg/mL]	Levofloxacin MIC Against P. aeruginosa PAM1001 in Presence of Efflux Pump Inhibitor (EPI), Minimum Inhibitory Concentration (Table 2, EPI Conc. […]) [µg/mL]	Levofloxacin MIC Against P. aeruginosa PAM1001 in Presence of Efflux Pump Inhibitor (EPI), Minimum Inhibitory Concentration [2] [µg/mL]	Levofloxacin MIC Against P. aeruginosa PAM1001 in Presence of Efflux Pump Inhibitor (EPI), Minimum Inhibitory Concentration (Table 3, EPI Conc. 0 μg/ml) [µg/mL]	Levofloxacin MIC Against P. aeruginosa PAM1001 in Presence of Efflux Pump Inhibitor (EPI), Minimum Inhibitory Concentration (Table 3, EPI Conc. 0.625 μg/ml) [µg/mL]	Levofloxacin MIC Against P. aeruginosa PAM1001 in Presence of Efflux Pump Inhibitor (EPI), Minimum Inhibitory Concentration (Table 3, EPI Conc. 5 μg/ml) [µg/mL]	Levofloxacin MIC Against P. aeruginosa PAM1001 in Presence of Efflux Pump Inhibitor (EPI), Minimum Inhibitory Concentration (Table 3, EPI Conc. 10 μg/ml) [µg/mL]	Levofloxacin MIC Against P. aeruginosa PAM1001 in Presence of Efflux Pump Inhibitor (EPI), Minimum Inhibitory Concentration (Table 3, EPI Conc. 40 μg/ml) [µg/mL]	Levofloxacin MIC Against P. aeruginosa PAM1001 in Presence of Efflux Pump Inhibitor (EPI), Minimum Inhibitory Concentration [3] [µg/mL]	Levofloxacin MIC Against P. aeruginosa PAM1001 in Presence of Efflux Pump Inhibitor (EPI), Minimum Inhibitory Concentration (Table 4, EPI Conc. 0 μg/ml) [µg/mL]	also measured
D-Ornithyl-D-β-(3-quinolinyl)alanine 2,3-trimethylenepyridyl-5-amide [Compound 41 (Table 2)]	4	4	0.125	0.06	0.015	0.015	4	4	2	1	0.50	4	0.25	4	4	4	2	0.50	1	4	Levofloxacin MIC Against P. aeruginosa PAM1001 in Presence of Efflux Pump Inhibitor (EPI), Minimum Inhibitory Concentration (Table 1, EPI Conc. […]): 2 µg/mL; Levofloxacin MIC Against P. aeruginosa PAM1001 in Presence of Efflux Pump Inhibitor (EPI), Minimum Inhibitory Concentration (Table 3, EPI Conc. […]): 4 µg/mL; Levofloxacin MIC Against P. aeruginosa PAM1001 in Presence of Efflux Pump Inhibitor (EPI), Minimum Inhibitory Concentration (Table 4, EPI Conc. 0.625 μg/ml): 4 µg/mL; Levofloxacin MIC Against P. aeruginosa PAM1001 in Presence of Efflux Pump Inhibitor (EPI), Minimum Inhibitory Concentration (Table 4, EPI Conc. 5 μg/ml): 2 µg/mL; Levofloxacin MIC Against P. aeruginosa PAM1001 in Presence of Efflux Pump Inhibitor (EPI), Minimum Inhibitory Concentration (Table 4, EPI Conc. 10 μg/ml): 0.50 µg/mL; Levofloxacin MIC Against P. aeruginosa PAM1001 in Presence of Efflux Pump Inhibitor (EPI), Minimum Inhibitory Concentration (Table 4, EPI Conc. […]): 4 µg/mL; Levofloxacin MIC Against P. aeruginosa PAM1001 in Presence of Efflux Pump Inhibitor (EPI), Minimum Inhibitory Concentration [4]: 0.50 µg/mL
4-(O-Methylcarboxyamido)phenylalanyl-Nα -methylornithine 2-naphthylamide [Compound 32 (Table 1)]	4	4	0.50	0.125	0.06	0.06	4	4	2	0.50	0.03	4	0.25	–	–	–	–	–	–	–	–
Phenylalanyl-Nα -methylornithine 2-(naphthylmethyl)amide [Compound 17 (Table 1)]	4	4	0.25	0.125	0.125	0.06	4	4	4	2	0.03	4	0.50	4	4	4	2	0.25	1	4	Levofloxacin MIC Against P. aeruginosa PAM1001 in Presence of Efflux Pump Inhibitor (EPI), Minimum Inhibitory Concentration (Table 3, EPI Conc. […]): 4 µg/mL; Levofloxacin MIC Against P. aeruginosa PAM1001 in Presence of Efflux Pump Inhibitor (EPI), Minimum Inhibitory Concentration (Table 4, EPI Conc. 0.625 μg/ml): 4 µg/mL; Levofloxacin MIC Against P. aeruginosa PAM1001 in Presence of Efflux Pump Inhibitor (EPI), Minimum Inhibitory Concentration (Table 4, EPI Conc. 5 μg/ml): 0.50 µg/mL; Levofloxacin MIC Against P. aeruginosa PAM1001 in Presence of Efflux Pump Inhibitor (EPI), Minimum Inhibitory Concentration (Table 4, EPI Conc. 10 μg/ml): 0.125 µg/mL; Levofloxacin MIC Against P. aeruginosa PAM1001 in Presence of Efflux Pump Inhibitor (EPI), Minimum Inhibitory Concentration (Table 4, EPI Conc. 40 μg/ml): 0.125 µg/mL; Levofloxacin MIC Against P. aeruginosa PAM1001 in Presence of Efflux Pump Inhibitor (EPI), Minimum Inhibitory Concentration [4]: 0.125 µg/mL
D-Lysyl-β-N-(3,3-Dimethylbutyl)alanine 2-Naphthylamide Trifluoroacetate [Example 30]	4	4	4	2	0.03	0.50	4	4	0.25	0.03	0.03	–	0.03	4	4	0.25	0.015	0.015	0.015	4	Levofloxacin MIC Against P. aeruginosa PAM1001 in Presence of Efflux Pump Inhibitor (EPI), Minimum Inhibitory Concentration (Table 1, EPI Conc. […]): 4 µg/mL; Levofloxacin MIC Against P. aeruginosa PAM1001 in Presence of Efflux Pump Inhibitor (EPI), Minimum Inhibitory Concentration (Table 4, EPI Conc. 0.625 μg/ml): 4 µg/mL; Levofloxacin MIC Against P. aeruginosa PAM1001 in Presence of Efflux Pump Inhibitor (EPI), Minimum Inhibitory Concentration (Table 4, EPI Conc. 5 μg/ml): 0.03 µg/mL; Levofloxacin MIC Against P. aeruginosa PAM1001 in Presence of Efflux Pump Inhibitor (EPI), Minimum Inhibitory Concentration (Table 4, EPI Conc. 10 μg/ml): 0.03 µg/mL; Levofloxacin MIC Against P. aeruginosa PAM1001 in Presence of Efflux Pump Inhibitor (EPI), Minimum Inhibitory Concentration (Table 4, EPI Conc. 40 μg/ml): 0.015 µg/mL; Levofloxacin MIC Against P. aeruginosa PAM1001 in Presence of Efflux Pump Inhibitor (EPI), Minimum Inhibitory Concentration [4]: 0.03 µg/mL
